12 compounds from patent US5354747A, “2-, 3-, 4-, 5-, 6-, 7-, 8-, 9- and/or 10-substituted dibenzoxazepine and dibenzthiazepine compounds, pharmaceutical compositions and methods of use” (G. D. Searle & Co., priority 1993, dated 1994) can be followed below.

Test [1] deals with Charles River male albino mice. Briefly: Writhing Assay (PBQ-induced writhing, analgesic activity). Type of test: in vivo. To be noted: Intragastric, 30 mg per kilogram of body weight 25 min before PBQ i.p., writhes equal to or less than one-half the control median; for responders at 30 mg/kg: Mus musculus, po, 25 min, read-out: number of mice out of nine or ten in which a test compound produced analgesia (converted). The text has this: The Writhing Assay is one of the most widely-used experimental procedures for measuring the analgesic activity of different narcotic and nonnarcotic analgesic agents, and involves the continuous, chemically-induced pain of visceral origin to an animal, such as a mouse or rat. [Gyires et al., Arch. int. Pharmacodyn, 267, 131-140 (1984); […] al., Fed. Proc., 15, 494 (1956); Koster et al., Fed. Proc., 18, 412 (1959); and Witken et al., J. Pharmacol. exp. Ther., 133, 400-408 (1961).] Chemicals which may be used to induce this pain include phenylbenzoquinone (PBQ) and acetic acid. As a result of the chemical irritation to the animal, a characteristic stretching and writhing of the animal (dorsiflexion of the animal's back, extension of its hindlimbs and the strong contraction of its abdominal musculature) will generally occur. […] Drugs which reduce the number of writhes of the animal appear to restore the normal nociceptive threshold of the animal. Charles River male albino mice, weighing 20 to 30 grams were used in this assay. Twenty-five minutes after intragastric administration to nine or ten mice of 30 mg per kilogram of body weight of a compound of the present invention ("test compound"), […] of body weight of a 0.025% w/v solution of PBQ was injected intraperitoneally into each mouse. Ten mice which were given saline in place of a test compound of the invention were used as a control group. Five minutes later, each mouse was individually placed into a glass beaker for observation, and the number of writhes occurring during the following ten-minute period was counted. A test compound was considered to have produced analgesia in a mouse if, in accordance with the conditions set forth above, and under the test criteria employed for this assay, after the administration of 30 mg per kilogram of body weight of a compound of the present invention to the mouse, the number of writhes elicited by a mouse injected with PBQ was equal to, or less than, one-half the median number of writhes recorded for the saline-treated control group of mice that day, as described by Taber in "Predictive Value of Analgesic Assays in Mice and Rats," Advances in Biochemical Psychopharmacology, 8, 191 (1974). […] If this initial screening dose of the test compound produced analgesia in seven of nine or ten mice, then the effect of additional doses of the test compound on the writhing response was evaluated, and then the ED50 value (that dose of a compound which produced analgesia in 50% of the mice to which the compound was administered) was generally calculated. A maximum likelihood function was used to determine the ED50 value. (The slopes of the dose-response curves for all test compounds analyzed were compared as described by Tallarida and Murray, Manual of Pharmacologic Calculations, Page 11 (Springer Verlag, New York, 1981)). The results for the particular compounds of the present invention analyzed in this assay, and discussed in the examples identified below which correspond thereto, are presented in Table 1 hereinbelow. The compounds of the present invention which were tested in this assay, and for which results are presented in Table 1, correspond to the particular examples specified in Table 1. The fractions indicate the number of mice out of nine or ten in which a test compound produced analgesia, and the whole numbers are the calculated ED50 values.
A general note: Writhing tests count abdominal constrictions after an irritant is injected.

The test system of test [2] is prostaglandin E2 -induced contractions of segments of guinea pig ileum. In words: Prostaglandin (PGE) Antagonism Assay. To be noted: dose ratio of prostaglandin E2 EC50 doses with/without test compound, initial concentration 3 micromolar. Type of test: cell-based. Here is the method: In order to determine the effectiveness of several of the compounds of the present invention ("test compounds") as prostaglandin E2 antagonists,a prostaglandin antagonism assay was conducted, as described below, to determine the ability of these compounds to inhibit prostaglandin E2 -induced contractions of segments of guinea pig ileum. […] Male albino guinea pigs weighing 200 to 500 grams were sacrificed by cervical dislocation. The ilea were then quickly removed from the guinea pigs and placed in a modified Tyrode solution, a solution which is known to those skilled in the art, containing one-half of the usual amount of magnesium ions. Segments of ileum about 2 cm long were then cut and mounted in a 10-mL tissue bath containing the modified Tyrode solution. The solution was maintained at 37° C. and aerated with a gaseous mixture of 95% oxygen and 5% carbon dioxide. Data for a control prostaglandin E2 dose response curve plotting concentration of prostaglandin E2 versus the intensity of contractions, detected isotonically, was then obtained by experimentally adjusting the dose of the prostaglandin E2 being injected into the tissue bath, in a manner known by those of skill in the art. Solutions or suspensions containing an initial concentration (3 micromolar) of a test compound in modified Tyrode solution ("test solutions/suspensions") were then separately substituted for the control bath solution. Each test solution/suspension was then kept in constant contact with the ileum tissue, except for brief periods to drain the bath in preparation for rinsing with fresh test solution/suspension. A second prostaglandin E2 dose response curve was then generated for prostaglandin E2 in the presence of a test compound. A dose ratio (DR) of EC50 doses was then calculated from the results of each test in a manner known by those of skill in the art. A control dose response curve (DRC) is produced in isolated segments of guinea pig ileum mounted in an automated apparatus with six concentrations of prostaglandin E2. A solution or suspension of test compound is substituted for the control bathing solution and is incubated for thirty minutes. An additional prostaglandin E2 dose response curve is produced in the presence of the test compound. A dose ratio is calculated from the EC50 values obtained from duplicate replications on each concentration of the test compound. […] The results of this prostaglandin antagonism assay are presented in Table 2 below in terms of their dose ratio. The compounds of the present invention which were tested in this assay, and for which results are presented in Table 2, correspond to the particular examples specified in Table 2.

Counter-ions that a name gives are not always drawn.

In the case of `Cl.O=C(c1ccncc1)N1CCN(C(=O)N2Cc3ccccc3Oc3ccc(Cl)cc32)CC1` [Example 29, 1-[(8-chlorodibenz[b,f][1,4]oxazepin-10(11H)-yl)carbonyl]-4-(4-pyridinylcarbonyl)piperazine, monohydrochloride], in test [1], the responders at 30 mg/kg is 50%. In addition, the “Dose Ratio” value in test [2] is listed as 2.2.

As for `O=C(CCc1cccnc1)N1CCN(C(=O)N2Cc3ccccc3Oc3ccc(Cl)cc32)CC1` [Example 33, 1-[(8-chlorodibenz[b,f][1,4]oxazepin-10(11H)-yl)carbonyl]-4-[(1-oxo-3-(3-pyridinyl)propyl]piperazine, monohydrochloride], in test [1], the responders at 30 mg/kg was 80%. Besides, the “Dose Ratio” value in test [2] was 6.7.

As to `Cl.O=C(N1CCN(CCc2ccccc2)CC1)N1Cc2ccccc2Oc2ccc(Cl)cc21` [Example 40, 8-Chloro-10,11-dihydro-10-[[4-(2-phenylethyl)-1-piperazinyl]carbonyl]dibenz[b,f][1,4]oxazepine, monohydrochloride], the responders at 30 mg/kg in test [1] was 20%. In addition, in test [2], the “Dose Ratio” value came out at 4.1.

As to `O=C(N1CCN(CCc2ccccc2)CC1)N1Cc2ccccc2Oc2ccccc21` [Example 41, 10,11-dihydro-10-[[4-(2-phenylethyl)-1-piperazinyl]carbonyl]dibenz[b,f][1,4]oxazepine, monohydrochloride], the responders at 30 mg/kg in test [1] is 100%. In test [2], the “Dose Ratio” value amounted to 2.6.

Consider `Cl.O=C(N1CCN(c2ccccc2)CC1)N1Cc2ccccc2Oc2ccc(Cl)cc21` [Example 43, 8-chloro-10,11-dihydro-10-[(4-phenyl-1-piperazinyl)carbonyl]dibenz[b,f][1,4]oxazepine, hydrochloride], for which the responders at 30 mg/kg in test [1] was 10%. The “Dose Ratio” value in test [2] is recorded as 0.8.

On to `Cl.O=C(N1CCN(Cc2ccsc2)CC1)N1Cc2ccccc2Oc2ccc(Cl)cc21` [Example 47, 8-chloro-10,11-dihydro-10-[[4-(3-thienylmethyl)-1-piperazinyl]carbonyl]dibenz[b,f][1,4]oxazepine, monohydrochloride], for which, in test [1], the responders at 30 mg/kg was 70%. Besides, the “Dose Ratio” value in test [2] amounted to 2.9.

In the case of `Cl.O=C(N1CCN(Cc2cccs2)CC1)N1Cc2ccccc2Oc2ccc(Cl)cc21` [Example 54, 8-chloro-10,11-dihydro-10-[[4-(2-thienylmethyl)-1-piperazinyl]carbonyl]dibenz[b,f][1,4]oxazepine, monohydrochloride], the responders at 30 mg/kg in test [1] was 60%. In addition, the “Dose Ratio” value in test [2] was found to be 2.4.

As for `Cl.O=C(Cc1cccnc1)N1CCN(C(=O)N2Cc3ccccc3Oc3ccc(Cl)cc32)CC1` [Example 56, 1-[(8-chlorodibenz[b,f][1,4]oxazepin-10(11H)-yl)carbonyl]-4-(3-pyridinylacetyl)piperazine, monohydrochloride], the responders at 30 mg/kg in test [1] was 50%. Further, the “Dose Ratio” value in test [2] is reported as 3.3.

For `Cl.O=C(c1cccnc1)N1CCN(C(=O)N2Cc3ccccc3Oc3ccc(Cl)cc32)CC1` [Example 58, 1-[(8-chlorodibenz[b,f][1,4]oxazepin-10(11H)-yl)carbonyl]-4-(3-pyridinylcarbonyl)piperazine, hydrochloride], the responders at 30 mg/kg in test [1] was 70%. Besides, the “Dose Ratio” value in test [2] came to 6.6.

Turning to `Cl.O=C(N1CCCNCC1)N1Cc2ccccc2Oc2ccc(Cl)cc21` [Example 61, 8-chloro-10-[(hexahydro-1H-1,4-diazepin-1-yl)carbonyl]-10,11-dihydrodibenz[b,f][1,4]oxazepine, hydrochloride], the responders at 30 mg/kg in test [1] was 60%. Further, the “Dose Ratio” value in test [2] is listed as 4.8.

Regarding `Cl.O=C(N1CCN(Cc2ccco2)CC1)N1Cc2ccccc2Oc2ccc(Cl)cc21` [Example 65, 8-chloro-10-[[4-(2-furanylmethyl)-1-piperazinyl]carbonyl]-10,11-dihydrodibenz[b,f][1,4]oxazepine, monohydrochloride], in test [1], the responders at 30 mg/kg is 40%. Besides, in test [2], the “Dose Ratio” value was found to be 8.4.

For the compound `CCN(CC)CCC1=CCN(C(=O)N2Cc3ccccc3Oc3ccc(Cl)cc32)CC1.Cl` [Example 67, 8-chloro-10-[[4-[2-(diethylamino)ethyl]-3,6-dihydro-1(2H)-pyridinyl]carbonyl]-10,11-dihydrobenz[b,f][1,4]oxazepine, hydrochloride], the “number of mice out of nine or ten in which a test compound produced analgesia” value in test [1] is on record as 6/10. For the same compound, the “Dose Ratio” value in test [2] is reported as 10.2.
